For assay [1], the system named is isolates from the enrichments. As to conditions: 37° C., microtiter plate. As for the experimental part:
(§1) Pure strains of 1-butanol resistant bacteria were isolated from the enrichment cultures as follows. The cells grown in an enrichment culture containing 1.2% or 1.6% 1-butanol were serially diluted, and the serial dilutions were plated on Luria Bertani (LB) agar medium, modified LB agar (i.e., LB agar supplemented with 0.5% sucrose, 0.5% glucose, 0.5% fructose, 0.5% sodium pyruvate, 2 mM MgCl2, 0.7 mM CaCl2, 50 μM MnCl2, 1 μM FeCl3, 1 μM ZnCl2, 1.72 μM CuCl2, 2.53 μM CoCl2, 2.42 μM Na2MoO4 and 2 μM thiamine hydrochloride) or minimal enrichment medium with 2.0% Difco™ Agar Noble, (BD Diagnostic Systems, Sparks, Md.), all without 1-butanol. Colonies were then inoculated from the agar medium into minimal enrichment medium (described above) without 1-butanol in the wells of a microtiter plate. […] The growth was monitored (by OD600) of isolates cultured in S30L medium (i.e., 10 mM ammonium sulfate, 5 mM potassium phosphate buffer, pH 7.0, 50 mM MOPS, pH 7.0, 2 mM MgCl2, 0.7 mM CaCl2, 50 μM MnCl2, 1 μM FeCl3, 1 μM ZnCl2, 1.72 μM CuCl2, 2.53 μM CoCl2, 2.42 μM Na2MoO4, 2 μM thiamine hydrochloride, 0.01 M glucose, and 0.2% yeast extract) at 37° C. in the absence (control) and in the presence of from 1.2% to 3.0% w/v of 1-butanol and the doubling time for each culture was calculated from the logarithmic part of the growth curve (doubling time=0.693/growth rate).

The subject of assay [2] is PN0110 (Enterococcus faecium). As to conditions: 37° C. The protocol: as §1
Assay [3] has as its system most microorganisms described in the art. Particulars: liquid medium; 37° C.; cited from earlier work.
For assay [4], the system named is enrichment cultures from environmental sludge samples. As to conditions: 37° C. As for the experimental part:
Environmental sludge samples were obtained from wastewater treatment facilities at several E.I. du Pont de Nemours and Company sites. Enrichment cultures were established for each sample by inoculating a 125-mL screw cap Erlenmeyer flask with 1 mL of a sludge sample in 10 mL of minimal enrichment medium (i.e., 10 mM ammonium sulfate, 50 mM potassium phosphate buffer, pH 7.0, 2 mM MgCl2, 0.7 mM CaCl2, 50 μM MnCl2, 1 μM FeCl3, 1 μM ZnCl2, 1.72 μM CuCl2, 2.53 μM CoCl2, 2.42 μM Na2MoO4, 2 μM thiamine hydrochloride, 0.5% glucose, 0.5% fructose, 0.5% sucrose and 0.1% yeast extract). The enrichment cultures were incubated at 37° C. with shaking. After 24 h of incubation, the enrichment cultures were diluted 1:10 into fresh medium that contained 0.8%, 1.2% or 1.6% w/v 1-butanol (Sigma Chemical Co.; molecular biology grade (greater than or equal to 99% purity)). Incubation continued under the same conditions. Cultures with the highest level of 1-butanol allowing significant growth (e.g., a culture with an initial OD600 of approximately 0.1 that increased within 24 to 48 h to an OD600 of approximately 1.0) were then diluted 1:10 into fresh medium that contained higher levels of 1-butanol to select for increased tolerance to 1-butanol.

Assay [5] relates to isolates listed in Table 5 (PN0048, PN0197-10, PN0133). Kind of assay: Growth on solid medium (S20 agar replica plating), isolates listed in Table 5. Particulars: 37° C., 24 to 72 h. Format: cell-based, Enterococcus. The protocol:
Phylogenetic characterization of the microbial consortium in the anaerobic bioreactor and isolation of pure strains of 1-butanol resistant bacteria from this bioreactor were performed as follows. Samples of cells taken from the bioreactor at various times and from the bioreactor waste jug were serially diluted, and the serial dilutions were plated on S20 agar medium (S20 medium with 1.6% DifCo™ Agar, Noble-Solidifying agent) without 1-butanol. Colonies were then inoculated from the S20 agar medium into 1.2 mL of S20 medium without 1-butanol in the wells of a square-well microtiter plate (Beckman Coulter Inc, Fullerton, Calif.; Catalog No. 069681). […] Butanol tolerance was determined by growth in the presence of 1-butanol as determined by measuring increases in optical density at 595 nm (OD595) on a microtiter plate reader (HTS 7000 Plus Bio Assay Reader, PerkinElmer Life and Analytical Sciences Inc., Wellesley, Mass.). Isolates that had OD595 readings in the range of 0.1 to 0.8 after growth for 48 h at 37° C. with shaking were selected for further tolerance testing. […] The IC50 values of the isolated strains were determined at 37° C., for 1-butanol, 2-butanol, isobutanol, 2-butanone (also called methyl ethyl ketone (MEK)) and ethanol, following the method described in Example 1.

Assay [6] has as its system Lactobacillus paracasei overexpressing GroESL. As to conditions: Desmond et al.; equals 0.4% w/v; cited from earlier work.
For assay [7], the system named is Lactococcus lactis overexpressing GroESL. Particulars: Desmond et al.; equals 0.4% w/v; cited from earlier work.
Setting [8] is: liquid minimal enrichment medium, shaking.

In the case of `CCCCO` [1-butanol], the “concentration in liquid medium at which several isolates displayed growth” value in assay [1] is listed as “at least 2.0%”. Besides, the “concentration in solid medium on which the strain was able to grow” value in assay [2] is 2.5 % w/v. In addition, in assay [3], the “concentration at which growth is totally inhibited” value is given as “less than 2.0 % w/v”. Further, the “concentration in whose presence none of the enrichment cultures grew” value in assay [4] (liquid medium) is given as 2.0%. For the same molecule, the “concentration in whose presence enrichment cultures from some sites grew” value in assay [4] (setting [8]) is on record as 1.6%. Besides, the “concentration in whose presence most of the enrichment cultures grew” value in assay [4] (setting [8]) was 1.2%. The “concentration on solid medium at which isolates displayed growth” value in assay [5] is ≥ 2.5%. Also, the “concentration in whose presence strains were able to grow” value in assay [6] and in assay [7] was 0.5 % volume/volume (v/v) throughout.

Source of the values: patent US7659104B2, “Solvent tolerant microorganisms and methods of isolation” (E.I. du Pont de Nemours and Company, priority 2006, dated 2010).
